{
  "source": "PubChem BioAssay AID1963441",
  "about": "(Molecular Pharmacology Branch, DTP, NCI, 2024)",
  "test_system": "NCI-H1876 complex spheroid growth, % test/control",
  "assay": "Anticancer human tumor NCI-H1876 cell line growth inhibition [Asc];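 also: compound exposure lasted 7 days starting three days after seeding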;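 as to viability, T/C: 100% = DMSO vehicle control wells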",
  "settings": "for IC50: curve of first compound; for viability, T/C: stronger effect = lower value",
  "in_short": "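Complex solid-tumor spheroids incorporating human endothelial and mesenchymal stem cells received single agents or combinations over half-log dilution ranges anchored to clinical Cmax.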",
  "data": [
    {"molecule": "CCN1CCN(Cc2ccc(Nc3ncc(F)c(-c4cc(F)c5nc(C)n(C(C)C)c5c4)n3)nc2)CC1", "note": "+ CNC(C)C(=O)NC1CN(S(=O)(=O)c2cccc(S(=O)(=O)N3CCC4CCC(C(=O)NC(c5ccccc5)c5ccccc5)N4C(=O)C(NC(=O)C(C)NC)C3)c2)CCC2CCC(C(=O)NC(c3ccccc3)c3ccccc3)N2C1=O", "values": [
      {"measurement": "IC50", "setting": "second compound 0.00316 µM", "result": "> 1000", "unit": "nM"},
      {"measurement": "IC50", "setting": "second compound 0.01 µM", "result": "> 1000", "unit": "nM"},
      {"measurement": "IC50", "setting": "second compound 0.0316 µM", "result": "> 1000", "unit": "nM"},
      {"measurement": "IC50", "setting": "second compound 0.1 µM", "result": "> 1000", "unit": "nM"},
      {"measurement": "IC50", "setting": "second compound 0.316 µM", "result": "> 1000", "unit": "nM"},
      {"measurement": "IC50", "setting": "second compound 1 µM", "result": "> 1000", "unit": "nM"},
      {"measurement": "viability, T/C", "setting": "second compound 0.00316 µM, first compound 0.00316 µM", "result": 104, "unit": "%"},
      {"measurement": "viability, T/C", "setting": "second compound 0.00316 µM, first compound 0.01 µM", "result": 89.2, "unit": "%"},
      {"measurement": "viability, T/C", "setting": "second compound 0.00316 µM, first compound 0.0316 µM", "result": 103, "unit": "%"},
      {"measurement": "viability, T/C", "setting": "second compound 0.00316 µM, first compound 0.1 µM", "result": 93.9, "unit": "%"},
      {"measurement": "viability, T/C", "setting": "second compound 0.00316 µM, first compound 0.316 µM", "result": 125, "unit": "%"},
      {"measurement": "viability, T/C", "setting": "second compound 0.00316 µM, first compound 1 µM", "result": 128, "unit": "%"},
      {"measurement": "viability, T/C", "setting": "second compound 0.01 µM, first compound 0.00316 µM", "result": 105, "unit": "%"},
      {"measurement": "viability, T/C", "setting": "second compound 0.01 µM, first compound 0.01 µM", "result": 104, "unit": "%"},
      {"measurement": "viability, T/C", "setting": "second compound 0.01 µM, first compound 0.0316 µM", "result": 102, "unit": "%"},
      {"measurement": "viability, T/C", "setting": "second compound 0.01 µM, first compound 0.1 µM", "result": 99.8, "unit": "%"},
      {"measurement": "viability, T/C", "setting": "second compound 0.01 µM, first compound 0.316 µM", "result": 126, "unit": "%"},
      {"measurement": "viability, T/C", "setting": "second compound 0.01 µM, first compound 1 µM", "result": 132, "unit": "%"},
      {"measurement": "viability, T/C", "setting": "second compound 0.0316 µM, first compound 0.00316 µM", "result": 105, "unit": "%"},
      {"measurement": "viability, T/C", "setting": "second compound 0.0316 µM, first compound 0.01 µM", "result": 93.1, "unit": "%"},
      {"measurement": "viability, T/C", "setting": "second compound 0.0316 µM, first compound 0.0316 µM", "result": 102, "unit": "%"},
      {"measurement": "viability, T/C", "setting": "second compound 0.0316 µM, first compound 0.1 µM", "result": 108, "unit": "%"},
      {"measurement": "viability, T/C", "setting": "second compound 0.0316 µM, first compound 0.316 µM", "result": 129, "unit": "%"},
      {"measurement": "viability, T/C", "setting": "second compound 0.0316 µM, first compound 1 µM", "result": 136, "unit": "%"},
      {"measurement": "viability, T/C", "setting": "second compound 0.1 µM, first compound 0.00316 µM", "result": 100, "unit": "%"},
      {"measurement": "viability, T/C", "setting": "second compound 0.1 µM, first compound 0.01 µM", "result": 102, "unit": "%"},
      {"measurement": "viability, T/C", "setting": "second compound 0.1 µM, first compound 0.0316 µM", "result": 104, "unit": "%"},
      {"measurement": "viability, T/C", "setting": "second compound 0.1 µM, first compound 0.1 µM", "result": 109, "unit": "%"},
      {"measurement": "viability, T/C", "setting": "second compound 0.1 µM, first compound 0.316 µM", "result": 118, "unit": "%"},
      {"measurement": "viability, T/C", "setting": "second compound 0.1 µM, first compound 1 µM", "result": 131, "unit": "%"},
      {"measurement": "viability, T/C", "setting": "second compound 0.316 µM, first compound 0.00316 µM", "result": 110, "unit": "%"},
      {"measurement": "viability, T/C", "setting": "second compound 0.316 µM, first compound 0.01 µM", "result": 93.1, "unit": "%"},
      {"measurement": "viability, T/C", "setting": "second compound 0.316 µM, first compound 0.0316 µM", "result": 101, "unit": "%"},
      {"measurement": "viability, T/C", "setting": "second compound 0.316 µM, first compound 0.1 µM", "result": 104, "unit": "%"},
      {"measurement": "viability, T/C", "setting": "second compound 0.316 µM, first compound 0.316 µM", "result": 126, "unit": "%"},
      {"measurement": "viability, T/C", "setting": "second compound 0.316 µM, first compound 1 µM", "result": 140, "unit": "%"},
      {"measurement": "viability, T/C", "setting": "second compound 1 µM, first compound 0.00316 µM", "result": 102, "unit": "%"},
      {"measurement": "viability, T/C", "setting": "second compound 1 µM, first compound 0.01 µM", "result": 105, "unit": "%"},
      {"measurement": "viability, T/C", "setting": "second compound 1 µM, first compound 0.0316 µM", "result": 109, "unit": "%"},
      {"measurement": "viability, T/C", "setting": "second compound 1 µM, first compound 0.1 µM", "result": 107, "unit": "%"},
      {"measurement": "viability, T/C", "setting": "second compound 1 µM, first compound 0.316 µM", "result": 129, "unit": "%"},
      {"measurement": "viability, T/C", "setting": "second compound 1 µM, first compound 1 µM", "result": 122, "unit": "%"}
    ]},
    {"molecule": "NC(=O)C(=Cn1cnc(-c2cc(C(F)(F)F)cc(C(F)(F)F)c2)n1)c1cncnc1", "note": "+ CCN1C(C(=O)NC23CCC(C(=O)O)(CC2)CC3)C(c2cccc(Cl)c2F)C2(C(=O)Nc3cc(Cl)ccc32)C12CCCCC2", "values": [
      {"measurement": "IC50", "setting": "second compound 0.00949 µM", "result": "> 300", "unit": "nM"},
      {"measurement": "IC50", "setting": "second compound 0.03 µM", "result": "> 300", "unit": "nM"},
      {"measurement": "IC50", "setting": "second compound 0.0949 µM", "result": "> 300", "unit": "nM"},
      {"measurement": "IC50", "setting": "second compound 0.3 µM", "result": "> 300", "unit": "nM"},
      {"measurement": "IC50", "setting": "second compound 0.949 µM", "result": "> 300", "unit": "nM"},
      {"measurement": "IC50", "setting": "second compound 3 µM", "result": "> 300", "unit": "nM"},
      {"measurement": "viability, T/C", "setting": "second compound 0.00949 µM, first compound 0.000949 µM", "result": 104, "unit": "%"},
      {"measurement": "viability, T/C", "setting": "second compound 0.00949 µM, first compound 0.003 µM", "result": 102, "unit": "%"},
      {"measurement": "viability, T/C", "setting": "second compound 0.00949 µM, first compound 0.00949 µM", "result": 115, "unit": "%"},
      {"measurement": "viability, T/C", "setting": "second compound 0.00949 µM, first compound 0.03 µM", "result": 94, "unit": "%"},
      {"measurement": "viability, T/C", "setting": "second compound 0.00949 µM, first compound 0.0949 µM", "result": 100, "unit": "%"},
      {"measurement": "viability, T/C", "setting": "second compound 0.00949 µM, first compound 0.3 µM", "result": 64.8, "unit": "%"},
      {"measurement": "viability, T/C", "setting": "second compound 0.03 µM, first compound 0.000949 µM", "result": 101, "unit": "%"},
      {"measurement": "viability, T/C", "setting": "second compound 0.03 µM, first compound 0.003 µM", "result": 99.3, "unit": "%"},
      {"measurement": "viability, T/C", "setting": "second compound 0.03 µM, first compound 0.00949 µM", "result": 96.6, "unit": "%"},
      {"measurement": "viability, T/C", "setting": "second compound 0.03 µM, first compound 0.03 µM", "result": 101, "unit": "%"},
      {"measurement": "viability, T/C", "setting": "second compound 0.03 µM, first compound 0.0949 µM", "result": 96.2, "unit": "%"},
      {"measurement": "viability, T/C", "setting": "second compound 0.03 µM, first compound 0.3 µM", "result": 63.7, "unit": "%"},
      {"measurement": "viability, T/C", "setting": "second compound 0.0949 µM, first compound 0.000949 µM", "result": 101, "unit": "%"},
      {"measurement": "viability, T/C", "setting": "second compound 0.0949 µM, first compound 0.003 µM", "result": 102, "unit": "%"},
      {"measurement": "viability, T/C", "setting": "second compound 0.0949 µM, first compound 0.00949 µM", "result": 100, "unit": "%"},
      {"measurement": "viability, T/C", "setting": "second compound 0.0949 µM, first compound 0.03 µM", "result": 98.5, "unit": "%"},
      {"measurement": "viability, T/C", "setting": "second compound 0.0949 µM, first compound 0.0949 µM", "result": 102, "unit": "%"},
      {"measurement": "viability, T/C", "setting": "second compound 0.0949 µM, first compound 0.3 µM", "result": 71.2, "unit": "%"},
      {"measurement": "viability, T/C", "setting": "second compound 0.3 µM, first compound 0.000949 µM", "result": 103, "unit": "%"},
      {"measurement": "viability, T/C", "setting": "second compound 0.3 µM, first compound 0.003 µM", "result": 104, "unit": "%"},
      {"measurement": "viability, T/C", "setting": "second compound 0.3 µM, first compound 0.00949 µM", "result": 103, "unit": "%"},
      {"measurement": "viability, T/C", "setting": "second compound 0.3 µM, first compound 0.03 µM", "result": 103, "unit": "%"},
      {"measurement": "viability, T/C", "setting": "second compound 0.3 µM, first compound 0.0949 µM", "result": 105, "unit": "%"},
      {"measurement": "viability, T/C", "setting": "second compound 0.3 µM, first compound 0.3 µM", "result": 69.6, "unit": "%"},
      {"measurement": "viability, T/C", "setting": "second compound 0.949 µM, first compound 0.000949 µM", "result": 124, "unit": "%"},
      {"measurement": "viability, T/C", "setting": "second compound 0.949 µM, first compound 0.003 µM", "result": 104, "unit": "%"},
      {"measurement": "viability, T/C", "setting": "second compound 0.949 µM, first compound 0.00949 µM", "result": 104, "unit": "%"},
      {"measurement": "viability, T/C", "setting": "second compound 0.949 µM, first compound 0.03 µM", "result": 114, "unit": "%"},
      {"measurement": "viability, T/C", "setting": "second compound 0.949 µM, first compound 0.0949 µM", "result": 101, "unit": "%"},
      {"measurement": "viability, T/C", "setting": "second compound 0.949 µM, first compound 0.3 µM", "result": 68.5, "unit": "%"},
      {"measurement": "viability, T/C", "setting": "second compound 3 µM, first compound 0.000949 µM", "result": 109, "unit": "%"},
      {"measurement": "viability, T/C", "setting": "second compound 3 µM, first compound 0.003 µM", "result": 97.4, "unit": "%"},
      {"measurement": "viability, T/C", "setting": "second compound 3 µM, first compound 0.00949 µM", "result": 104, "unit": "%"},
      {"measurement": "viability, T/C", "setting": "second compound 3 µM, first compound 0.03 µM", "result": 94.8, "unit": "%"},
      {"measurement": "viability, T/C", "setting": "second compound 3 µM, first compound 0.0949 µM", "result": 96.1, "unit": "%"},
      {"measurement": "viability, T/C", "setting": "second compound 3 µM, first compound 0.3 µM", "result": 55, "unit": "%"}
    ]}
  ]
}
